According to patent publication US20230356105A1, “TETRAAZADODECANE BASED CHELATING AGENTS FOR SEPARATION OF RARE EARTH ELEMENTS AND METHOD THEREFOR” (Ustav Organicke Chemie a Biochemie AV CR V.V.I., priority 2020, published 2023):
Values joined by “and” are separate entries in the source; they are usually repeats but may differ in a detail not shown here. Identical values can stand only once.

Legend:
[1] = Separation of industrially relevant binary mixtures by precipitation using L1, L2 and L3 (Example 10); type: physicochemical; conditions: supernatant
Protocol: Analogous to Example 7), three sets of reaction mixtures with two metals and either compound L1, L2, or L3 were prepared in a 96-well plate with the following differences: each well was equipped with one PTFE-coated magnetic stir bar, the well plate was sealed with a silicon cover, and the reaction mixtures were stirred on a magnetic stirrer for 2 days at room temperature. Analogous to Example 7), the well plate was then centrifuged and concentrations of the metals were determined using ICP-OES. […] It is evident from the results that certain degrees of enrichment are achieved for very different combinations of metals, and that ligands L1, L2, and L3 have different selectivities for given combinations of metals.

[2] = Separation of Nd/Pr/Tb/Dy mixture by repeated precipitation using L5 and α-HIBA (Example 24); type: physicochemical
Protocol: The reaction mixture was prepared by pipetting the following aqueous stock solutions into a 20 mL glass vial: • 1. 476 μL 246 mM aqueous chelator L5 • 2. 606 μL 175.5 mM aqueous LnCl3 solution (from a stock solution containing a mixture of Ln =Nd, Pr, Tb, and Dy, in a ratio of 3.3:1:1:1, Nd:Pr:Tb:Dy) • 3. 41.6 μL 2560 mM aqueous α-HIBA pH=6.5 • 4. 4103 μL water • 5. 1733 μL 3.0 M MOPS pH=7
The total reaction volume was 7.0 mL. Three identical reaction mixtures were prepared. A PTFE-coated stir bar was added to each vial; the vials were capped and stirred on a magnetic stirrer at room temperature. After 18 hours, a 200 μL aliquot of the reaction mixture was taken from each vial. This was centrifuged in a 2 mL plastic Eppendorf centrifuge tube, and the supernatant was carefully pipetted from the sample and transferred to a new set of tubes. The precipitate was dissolved by addition of 200 μL 1 M HCl, and the absolute concentration of each of the four lanthanides (Nd, Pr, Tb, and Dy) in each sample of the supernatant and precipitate was determined by ICP-OES. The remaining reaction mixtures from each vial were individually centrifuged in 15 mL plastic centrifuge tubes to separate the precipitate from the supernatant. The supernatant was discarded. Each precipitate was dissolved by addition of 2 mL 1 M HCl and heating to 80° C. for 1 hour. After dissolution, the acidic solutions were transferred to clean 20 mL glass vials with one PTFE-coated magnetic stir bar each. To each solution was added, in order: 2037 μL water, 40.4 μL 2560 mM aqueous α-HIBA pH =6.5, 1723 μL 3 M aqueous MOPS pH=7, and 1000 μL 2 M NaOH. These solutions were capped and stirred on a magnetic stirrer at room temperature. After 18 hours, a 200 μL aliquot of the reaction mixture was again taken from each and treated for ICP-OES analysis as before. Once again, the remaining reaction mixtures from each vial were individually centrifuged in 15 mL plastic centrifuge tubes to separate the precipitate from the supernatant. The supernatant was discarded. Each precipitate was dissolved by addition of 1 mL 1M HCl and heating to 80° C. for 1 hour. After dissolution, the acidic solutions were transferred to clean 20 mL glass vials with one PTFE-coated magnetic stir bar each. To each solution was added, in order: 3376 μL water, 51.6 μL 2560 mM aqueous α-HIBA pH =6.5, 1672 μL 3 M aqueous MOPS pH=7, and 500 μL 2 M NaOH. These solutions were capped and stirred on a magnetic stirrer at room temperature. After 18 hours, a final 200 μL aliquot of the reaction mixture was again taken from each vial and treated for ICP-OES analysis as before.

[3] = series A (first precipitation, 18 hours), individual samples A1-A3
[4] = series B (repeated precipitation), individual samples B1-B3
[5] = series C (repeated precipitation), individual samples C1-C3

SMILES: O=C(O)CN1CCN(CC(=O)O)CCN(Cc2ccccc2)CCN(CC(=O)O)CC1 [L1, 2,2′,2″-(10-benzyl-1,4,7,10-tetraazacyclododecane-1,4,7-triyl)triacetic Acid]
- [mM] M1 ([1]; M1/M2=Eu/Y): 0.118 mM
- [mM] M2 ([1]; M1/M2=Eu/Y): 0.265 mM
- [mM] M1 ([1]; M1/M2=La/Ce): 0.603 mM
- [mM] M2 ([1]; M1/M2=La/Ce): 0.388 mM
- [mM] M1 ([1]; M1/M2=Nd/Ce): 0.397 mM
- [mM] M2 ([1]; M1/M2=Nd/Ce): 0.038 mM
- [mM] M1 ([1]; M1/M2=Nd/Dy): 0.204 mM
- [mM] M2 ([1]; M1/M2=Nd/Dy): 0.302 mM
- [mM] M1 ([1]; M1/M2=Nd/La): 0.177 mM
- [mM] M2 ([1]; M1/M2=Nd/La): 0.559 mM
- [mM] M1 ([1]; M1/M2=Nd/Pr): 0.530 mM
- [mM] M2 ([1]; M1/M2=Nd/Pr): 0.572 mM
- [mM] M1 ([1]; M1/M2=Nd/Tb): 0.325 mM
- [mM] M2 ([1]; M1/M2=Nd/Tb): 0.142 mM
- [mM] M1 ([1]; M1/M2=Pr/Ce): 0.186 mM
- [mM] M2 ([1]; M1/M2=Pr/Ce): 0.285 mM
- [mM] M1 ([1]; M1/M2=Pr/Dy): 0.216 mM
- [mM] M2 ([1]; M1/M2=Pr/Dy): 0.157 mM
- [mM] M1 ([1]; M1/M2=Pr/La): 0.246 mM
- [mM] M2 ([1]; M1/M2=Pr/La): 0.569 mM
- [mM] M1 ([1]; M1/M2=Tb/Dy): 0.216 mM
- [mM] M2 ([1]; M1/M2=Tb/Dy): 0.284 mM
- [mM] M1 ([1]; M1/M2=Tb/Eu): 0.206 mM
- [mM] M2 ([1]; M1/M2=Tb/Eu): 0.159 mM
- [mM] M1 ([1]; M1/M2=Tb/Pr): 0.116 mM
- [mM] M2 ([1]; M1/M2=Tb/Pr): 0.211 mM
- [mM] M1 ([1]; M1/M2=Tb/Y): 0.143 mM
- [mM] M2 ([1]; M1/M2=Tb/Y): 0.361 mM

SMILES: O=C(O)CN1CCN(CC(=O)O)CCN(Cc2cccc3ccccc23)CCN(CC(=O)O)CC1 [L5, 2,2′,2″-(10-(naphthalene-1-ylmethyl)-1,4,7,10-tetraazacyklododekane-1,4,7-triyl)triacetic acid]
- avg composition of precipitate, Dy ([2]; series A): 6.3%
- avg composition of precipitate, Nd ([2]; series A): 67.2%
- avg composition of precipitate, Pr ([2]; series A): 18.2%
- avg composition of precipitate, Tb ([2]; series A): 8.2%
- avg composition of supernatant, Dy ([2]; series A): 43.8%
- avg composition of supernatant, Nd ([2]; series A): 21.4%
- avg composition of supernatant, Pr ([2]; series A): 3.2%
- avg composition of supernatant, Tb ([2]; series A): 31.6%
- precipitate concentration Dy [2, 3]: 0.81 mM and 0.82 mM (2×)
- precipitate concentration Nd [2, 3]: 8.82 mM and 8.69 mM and 8.55 mM
- precipitate concentration Pr [2, 3]: 2.39 mM and 2.35 mM and 2.32 mM
- precipitate concentration Tb [2, 3]: 1.05 mM and 1.07 mM and 1.06 mM
- supernatant concentration Dy [2, 3]: 1.69 mM and 1.65 mM and 1.68 mM
- supernatant concentration Nd [2, 3]: 0.85 mM and 0.90 mM and 0.70 mM
- supernatant concentration Pr [2, 3]: 0.12 mM and 0.15 mM and 0.09 mM
- supernatant concentration Tb [2, 3]: 1.23 mM and 1.19 mM and 1.20 mM
- precipitate concentration Dy, avg ([2]; series A avg): 0.81 mM
- precipitate concentration Nd, avg ([2]; series A avg): 8.68 mM
- precipitate concentration Pr, avg ([2]; series A avg): 2.35 mM
- precipitate concentration Tb, avg ([2]; series A avg): 1.06 mM
- supernatant concentration Dy, avg ([2]; series A avg): 1.67 mM
- supernatant concentration Nd, avg ([2]; series A avg): 0.82 mM
- supernatant concentration Pr, avg ([2]; series A avg): 0.12 mM
- supernatant concentration Tb, avg ([2]; series A avg): 1.21 mM
- avg composition of precipitate, Dy ([2]; series B): 2.0%
- avg composition of precipitate, Nd ([2]; series B): 73.4%
- avg composition of precipitate, Pr ([2]; series B): 20.6%
- avg composition of precipitate, Tb ([2]; series B): 4.0%
- avg composition of supernatant, Dy ([2]; series B): 28.7%
- avg composition of supernatant, Nd ([2]; series B): 34.0%
- avg composition of supernatant, Pr ([2]; series B): 3.1%
- avg composition of supernatant, Tb ([2]; series B): 34.1%
- precipitate concentration Dy [2, 4]: 0.20 mM and 0.21 mM and 0.22 mM
- precipitate concentration Nd [2, 4]: 7.54 mM and 7.82 mM and 8.02 mM
- precipitate concentration Pr [2, 4]: 2.11 mM and 2.20 mM and 2.24 mM
- precipitate concentration Tb [2, 4]: 0.41 mM and 0.42 mM and 0.45 mM
- supernatant concentration Dy [2, 4]: 0.50 mM and 0.52 mM and 0.54 mM
- supernatant concentration Nd [2, 4]: 0.65 mM and 0.60 mM and 0.59 mM
- supernatant concentration Pr [2, 4]: 0.06 mM and 0.05 mM (2×)
- supernatant concentration Tb [2, 4]: 0.60 mM and 0.61 mM and 0.64 mM
- precipitate concentration Dy, avg ([2]; series B avg): 0.21 mM
- precipitate concentration Nd, avg ([2]; series B avg): 7.80 mM
- precipitate concentration Pr, avg ([2]; series B avg): 2.18 mM
- precipitate concentration Tb, avg ([2]; series B avg): 0.42 mM
- supernatant concentration Dy, avg ([2]; series B avg): 0.52 mM
- supernatant concentration Nd, avg ([2]; series B avg): 0.61 mM
- supernatant concentration Pr, avg ([2]; series B avg): 0.06 mM
- supernatant concentration Tb, avg ([2]; series B avg): 0.62 mM
- avg composition of precipitate, Dy ([2]; series C): 0.5%
- avg composition of precipitate, Nd ([2]; series C): 75.6%
- avg composition of precipitate, Pr ([2]; series C): 22.1%
- avg composition of precipitate, Tb ([2]; series C): 1.8%
- avg composition of supernatant, Dy ([2]; series C): 10.4%
- avg composition of supernatant, Nd ([2]; series C): 61.4%
- avg composition of supernatant, Pr ([2]; series C): 6.5%
- avg composition of supernatant, Tb ([2]; series C): 21.6%
- precipitate concentration Dy [2, 5]: 0.03 mM and 0.04 mM (2×)
- precipitate concentration Nd [2, 5]: 6.34 mM and 6.40 mM and 6.17 mM
- precipitate concentration Pr [2, 5]: 1.85 mM and 1.87 mM and 1.80 mM
- precipitate concentration Tb [2, 5]: 0.15 mM (2×) and 0.16 mM
- supernatant concentration Dy [2, 5]: 0.12 mM (2×) and 0.13 mM
- supernatant concentration Nd [2, 5]: 0.67 mM and 0.68 mM and 0.83 mM
- supernatant concentration Pr [2, 5]: 0.07 mM (2×) and 0.10 mM
- supernatant concentration Tb [2, 5]: 0.24 mM and 0.25 mM and 0.27 mM
- precipitate concentration Dy, avg ([2]; series C avg): 0.04 mM
- precipitate concentration Nd, avg ([2]; series C avg): 6.30 mM
- precipitate concentration Pr, avg ([2]; series C avg): 1.84 mM
- precipitate concentration Tb, avg ([2]; series C avg): 0.15 mM
- supernatant concentration Dy, avg ([2]; series C avg): 0.12 mM
- supernatant concentration Nd, avg ([2]; series C avg): 0.73 mM
- supernatant concentration Pr, avg ([2]; series C avg): 0.08 mM
- supernatant concentration Tb, avg ([2]; series C avg): 0.26 mM
